Reference: ChEMBL document CHEMBL4627250, “Suitable fusion of N-terminal heptad repeats to achieve covalently stabilized potent N-peptide inhibitors of HIV-1 infection” (Bioorg Med Chem, 2020)

test: Thermal stability of compound assessed as melting temperature at 10 uM; type: physicochemical

Row | Tm | Substance
1 | 72 °C | H-RIQQIEQKIHHIEQRIQQIEQLLQLTVWGIKQLQARIL-OH
2 | 74 °C | H-RIQQIEQKIHHIEQRIQQIEQRIEAQQHLLQLTVWGIKQLQARIL-OH
3 | 82 °C | H-RIQQIEQKIHHIEQRIQQIEQRISGIVQQQNNLLRIEAQQHLLQLTVWGIKQLQARIL-OH
